Experiments:
[1] = system: alpha-Adrenergic receptors; experiment: Competitive displacement of Clozapine-a-2-NB590 by unmodified scaffold (NanoBRET); assay type: binding, human; settings: for Interaction verified via competitive displacement of tracer: tracer Clozapine-a-2-NB590, alpha-Adrenergic receptors; for NanoBRET Fold Response, other tracers/XAC (unmodified): displaced by unmodified XAC
Description: Finally, we opted to compare the machine learning predictions for the 17 scaffolds to the empirical NanoBRET evaluations across 36 GPCR families investigated by both strategies (Figure 7). […] At the same time, empirical NanoBRET results for each scaffold were consolidated to include results for all relevant fluorescent tracer candidates screened at either 1 μM or 0.1 μM tracer concentrations. […] These additional verifications were incorporated to the comparative analysis and are also included in the compiled screening results (Supplementary Materials Excel spreadsheet).

[2] = system: 5-Hydroxytryptamine receptors; experiment: as above; assay type: binding, human; settings: tracer Clozapine-a-2-NB590
From the text: (§1) Finally, we opted to compare the machine learning predictions for the 17 scaffolds to the empirical NanoBRET evaluations across 36 GPCR families investigated by both strategies (Figure 7). The highest correlation between model-predicted and NanoBRET-confirmed interactions was found using minimal thresholds of ≥4% classification probability and ≥1.5-fold response, respectively (Figure S11). These thresholds provided the best balance between model accuracy and a low percentage of false predictions. Accordingly, machine learning predictions for all unmodified scaffolds were compiled (Figure S6) and those above the minimum 4% probability threshold were classified as positive interactions (Figure 7A). At the same time, empirical NanoBRET results for each scaffold were consolidated to include results for all relevant fluorescent tracer candidates screened at either 1 μM or 0.1 μM tracer concentrations. […] One caveat comparing model predictions to empirical NanoBRET evaluations is their use of unmodified versus fluorescently modified scaffolds, respectively. Therefore, model predictions not verified by BRET could in part be the result of fluorophore interference with binding interactions. […]

Dopamine receptors = experiment: as above; assay type: binding, human; settings: tracer Clozapine-a-2-NB590
From the text: as §1

ADRB2 = molecular target: T1, ADRB2 (Homo sapiens, UniProt P07550); experiment: NanoBRET screen HiBiT-ADRB2 in HEK293; assay type: binding; settings: ADRB2, other tracers/Quetiapine (unmodified)
T1 construct: purchased Promega (in-house HiBiT-GPCR construct library, NanoBRET)
Description: (§2) Each tracer candidate was screened across the entire library of HiBiT-GPCR constructs using NanoBRET as the detection modality. As depicted in Figure 4A, the specificity of interactions was evaluated through decrease in BRET due to competitive displacement of a bound tracer by excess parental compound. Each tracer was analyzed for binding to each HiBiT-GPCR fusion in the absence and in the presence of competing parental compound. Briefly, HEK293 cells were transfected with HiBiT-GPCR constructs diluted into promoterless DNA to reduce expression and maximize translocation to the cell surface. Each tracer candidate was then screened at concentrations of 1 μM and 0.1 μM across cells expressing these fusions. Cells were treated for 1.5 h with tracer either alone or in the presence of 20 μM competing parental compound (i.e., control). BRET was measured upon addition of purified LgBiT and subsequent complementation with HiBiT genetically fused to a GPCR. The specificity of interactions was assessed through a decrease in BRET signal due to competitive displacement of the bound tracer. To further gauge the robustness of these interactions, the fold response over the control (i.e., BRETtracer/BRETcontrol) was calculated. We chose a 1.5-fold response, which translates to ≥7-fold signal over noise as the minimal threshold required to score an interaction as positive.
(§3) HiBiT-GPCR DNA constructs were diluted in 10 mM Tris pH 8 to a final concentration of 0.01 μg/μL, arrayed in 96-well plates and stored at −20 °C. For transfection, HEK293 cells were suspended in Opti-MEM (without phenol red) supplemented with 2% fetal bovine serum (Seradigm) and 100 units/mL penicillin–streptomycin (Gibco) at a final concentration of 220,000 cells/mL and dispensed into white 96-well plates at 90 μL/well. Subsequent transfections and screens were carried using an Agilent Bravo Automated Liquid Handling Platform. First, the 96-well HiBiT DNA arrays were diluted 25-fold in Opti-MEM (without serum or phenol red) to a final concentration of 0.0004 μg/μL and 20 μL of the diluted DNAs were transferred into new 96-well plates. Next, promoterless carrier DNA (1 μg/μL) was diluted 25-fold (0.04 μg/μL) and then dispensed into the diluted arrays at 20 μL/well. Following brief mixing, Viafect transfection reagent (Promega) diluted 16-fold into Opti-MEM was dispensed into the plates at 40 μL/well. After mixing by pipetting, plates were incubated for 10 min on the pipetting station deck. The DNA-transfection reagent complexes were then added to plates containing cells. To facilitate the screen, 10 μL of DNA-transfection reagent complexes were added in duplicates to the top 4 and bottom 4 rows, resulting in two identical 48-well arrays per plate. Plates with transfected cells were incubated for 18–20 h at 37 °C/5% CO2. A screen of each tracer across the entire library using two different concentrations requires duplicate plates of transfected cells. Depending on the number of tracers being screened, transfections can be scaled up using the same ratios. The next day, for each tracer, four 20× screening solutions in tracer dilution buffer (Promega) were prepared: two duplicates at final concentration of 20 μM and two duplicates at a final concentration of 2 μM. […] The four resulting solutions were diluted 4-fold in Opti-MEM without serum or phenol red to generate 5× solutions (5 µM and 0.5 µM tracer +/− 100 μM competing compound). To screen the library, a BioTek MultiFlo FX liquid dispenser was used to dispense 22.5 µL of tracer solution to the top 4 rows and 22.5 µL tracer + competing compound solution to the 4 bottom rows. Plates were briefly mixed on an orbital shaker and incubated for 1.5 h at room temperature. […] Plates were briefly mixed on an orbital shaker and incubated for 15 min to allow complementation.

OPRM1 = molecular target: T2, OPRM1 (Homo sapiens, UniProt P35372); experiment: NanoBRET screen HiBiT-OPRM1 in HEK293; assay type: binding; settings: OPRM1
T2 construct: purchased Promega (in-house HiBiT-GPCR construct library, NanoBRET)
Description: as §2, §3

OPRD1 = molecular target: T3, OPRD1 (Homo sapiens, UniProt P41143); experiment: NanoBRET screen HiBiT-OPRD1 in HEK293; assay type: binding; settings: OPRD1
T3 construct: purchased Promega (in-house HiBiT-GPCR construct library, NanoBRET)
Description: as §2, §3

ADRB1 = molecular target: T4, ADRB1 (Homo sapiens, UniProt P08588); experiment: NanoBRET screen HiBiT-ADRB1 in HEK293; assay type: binding; settings: ADRB1
T4 construct: purchased Promega (in-house HiBiT-GPCR construct library, NanoBRET)

OPRK1 = molecular target: T5, OPRK1 (Homo sapiens, UniProt P41145); experiment: NanoBRET screen HiBiT-OPRK1 in HEK293; assay type: binding; settings: OPRK1
T5 construct: purchased Promega (in-house HiBiT-GPCR construct library, NanoBRET)
Description: as §2, with “positive. […]. Below we highlight the screening results obtained for our exemplary fluorescent tracers based on Clozapine, Amitriptyline and AZD1283.” for “positive.”
HiBiT-GPCR DNA constructs were diluted in 10 mM Tris pH 8 to a final concentration of 0.01 μg/μL, arrayed in 96-well plates and stored at −20 °C. For transfection, HEK293 cells were suspended in Opti-MEM (without phenol red) supplemented with 2% fetal bovine serum (Seradigm) and 100 units/mL penicillin–streptomycin (Gibco) at a final concentration of 220,000 cells/mL and dispensed into white 96-well plates at 90 μL/well. Subsequent transfections and screens were carried using an Agilent Bravo Automated Liquid Handling Platform. First, the 96-well HiBiT DNA arrays were diluted 25-fold in Opti-MEM (without serum or phenol red) to a final concentration of 0.0004 μg/μL and 20 μL of the diluted DNAs were transferred into new 96-well plates. Next, promoterless carrier DNA (1 μg/μL) was diluted 25-fold (0.04 μg/μL) and then dispensed into the diluted arrays at 20 μL/well. Following brief mixing, Viafect transfection reagent (Promega) diluted 16-fold into Opti-MEM was dispensed into the plates at 40 μL/well. After mixing by pipetting, plates were incubated for 10 min on the pipetting station deck. The DNA-transfection reagent complexes were then added to plates containing cells. To facilitate the screen, 10 μL of DNA-transfection reagent complexes were added in duplicates to the top 4 and bottom 4 rows, resulting in two identical 48-well arrays per plate. Plates with transfected cells were incubated for 18–20 h at 37 °C/5% CO2. A screen of each tracer across the entire library using two different concentrations requires duplicate plates of transfected cells. Depending on the number of tracers being screened, transfections can be scaled up using the same ratios. The next day, for each tracer, four 20× screening solutions in tracer dilution buffer (Promega) were prepared: two duplicates at final concentration of 20 μM and two duplicates at a final concentration of 2 μM. A competing unmodified compound was added to one of each duplicate at a final concentration of 400 μM. The four resulting solutions were diluted 4-fold in Opti-MEM without serum or phenol red to generate 5× solutions (5 µM and 0.5 µM tracer +/− 100 μM competing compound). To screen the library, a BioTek MultiFlo FX liquid dispenser was used to dispense 22.5 µL of tracer solution to the top 4 rows and 22.5 µL tracer + competing compound solution to the 4 bottom rows. Plates were briefly mixed on an orbital shaker and incubated for 1.5 h at room temperature. […]

ADRB3 = molecular target: T6, ADRB3 (Homo sapiens, UniProt P13945); experiment: NanoBRET screen HiBiT-ADRB3 in HEK293; assay type: binding; settings: ADRB3
T6 construct: purchased Promega (in-house HiBiT-GPCR construct library, NanoBRET)
Description: as §2, §3

[3] = other tracers/Quetiapine (unmodified), 0.1μM
[4] = other tracers/Quetiapine (unmodified), 1μM
[5] = other tracers/Tolterodine (unmodified), 0.1μM
[6] = other tracers/Tolterodine (unmodified), 1μM

T2 sequence (P35372 whole entry): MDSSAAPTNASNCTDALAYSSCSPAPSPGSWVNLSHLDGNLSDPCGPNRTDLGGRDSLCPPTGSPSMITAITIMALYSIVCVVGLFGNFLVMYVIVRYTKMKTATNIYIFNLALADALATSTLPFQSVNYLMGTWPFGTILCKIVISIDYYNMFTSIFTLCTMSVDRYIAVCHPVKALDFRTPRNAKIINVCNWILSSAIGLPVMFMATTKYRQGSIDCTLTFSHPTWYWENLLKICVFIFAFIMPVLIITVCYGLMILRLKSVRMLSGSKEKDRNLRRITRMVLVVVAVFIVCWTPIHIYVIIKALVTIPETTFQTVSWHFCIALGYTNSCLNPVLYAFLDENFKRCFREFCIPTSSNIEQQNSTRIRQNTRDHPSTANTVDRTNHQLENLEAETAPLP
T4 sequence (P08588 whole entry): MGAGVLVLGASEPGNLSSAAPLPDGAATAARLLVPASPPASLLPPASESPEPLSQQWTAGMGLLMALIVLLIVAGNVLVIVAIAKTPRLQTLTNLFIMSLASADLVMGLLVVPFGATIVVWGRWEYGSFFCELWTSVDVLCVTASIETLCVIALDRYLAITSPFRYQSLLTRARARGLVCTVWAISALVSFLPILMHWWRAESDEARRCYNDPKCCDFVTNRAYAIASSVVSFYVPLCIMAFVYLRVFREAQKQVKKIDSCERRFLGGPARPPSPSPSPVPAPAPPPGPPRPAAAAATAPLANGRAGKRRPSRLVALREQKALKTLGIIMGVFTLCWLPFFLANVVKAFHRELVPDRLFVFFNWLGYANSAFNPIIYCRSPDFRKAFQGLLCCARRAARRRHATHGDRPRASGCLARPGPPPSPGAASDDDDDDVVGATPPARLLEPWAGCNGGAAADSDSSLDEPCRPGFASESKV
T5 sequence (P41145 whole entry): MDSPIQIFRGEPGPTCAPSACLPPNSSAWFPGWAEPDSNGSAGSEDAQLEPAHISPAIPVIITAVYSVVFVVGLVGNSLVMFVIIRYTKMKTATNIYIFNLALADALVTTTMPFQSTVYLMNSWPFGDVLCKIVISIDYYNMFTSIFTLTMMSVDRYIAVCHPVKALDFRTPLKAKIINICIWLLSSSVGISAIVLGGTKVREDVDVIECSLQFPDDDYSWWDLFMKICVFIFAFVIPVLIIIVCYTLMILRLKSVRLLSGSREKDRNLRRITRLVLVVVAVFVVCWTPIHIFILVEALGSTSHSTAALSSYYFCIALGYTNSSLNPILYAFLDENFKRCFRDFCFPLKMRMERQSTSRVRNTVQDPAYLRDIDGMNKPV
T3 sequence (P41143 whole entry): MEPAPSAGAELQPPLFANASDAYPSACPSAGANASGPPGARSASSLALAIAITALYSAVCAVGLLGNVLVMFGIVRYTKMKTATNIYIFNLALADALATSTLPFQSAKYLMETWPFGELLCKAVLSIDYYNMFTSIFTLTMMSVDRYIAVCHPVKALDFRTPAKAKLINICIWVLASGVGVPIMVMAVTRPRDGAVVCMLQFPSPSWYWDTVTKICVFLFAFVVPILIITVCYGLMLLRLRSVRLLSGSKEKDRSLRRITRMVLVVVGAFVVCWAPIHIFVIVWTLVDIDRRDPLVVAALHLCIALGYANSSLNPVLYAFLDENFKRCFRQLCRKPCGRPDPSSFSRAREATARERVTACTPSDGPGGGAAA
T6 sequence (P13945 whole entry): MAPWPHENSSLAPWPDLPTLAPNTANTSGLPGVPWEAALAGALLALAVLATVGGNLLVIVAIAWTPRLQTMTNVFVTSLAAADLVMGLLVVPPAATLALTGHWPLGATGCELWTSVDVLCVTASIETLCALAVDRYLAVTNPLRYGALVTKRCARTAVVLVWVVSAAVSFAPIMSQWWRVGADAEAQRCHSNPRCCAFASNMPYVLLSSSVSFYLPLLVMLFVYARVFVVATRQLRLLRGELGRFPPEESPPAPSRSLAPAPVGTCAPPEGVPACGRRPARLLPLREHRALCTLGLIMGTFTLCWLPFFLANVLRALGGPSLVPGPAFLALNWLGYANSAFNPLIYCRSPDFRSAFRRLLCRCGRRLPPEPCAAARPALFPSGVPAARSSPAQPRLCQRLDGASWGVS
T1 sequence (P07550 whole entry): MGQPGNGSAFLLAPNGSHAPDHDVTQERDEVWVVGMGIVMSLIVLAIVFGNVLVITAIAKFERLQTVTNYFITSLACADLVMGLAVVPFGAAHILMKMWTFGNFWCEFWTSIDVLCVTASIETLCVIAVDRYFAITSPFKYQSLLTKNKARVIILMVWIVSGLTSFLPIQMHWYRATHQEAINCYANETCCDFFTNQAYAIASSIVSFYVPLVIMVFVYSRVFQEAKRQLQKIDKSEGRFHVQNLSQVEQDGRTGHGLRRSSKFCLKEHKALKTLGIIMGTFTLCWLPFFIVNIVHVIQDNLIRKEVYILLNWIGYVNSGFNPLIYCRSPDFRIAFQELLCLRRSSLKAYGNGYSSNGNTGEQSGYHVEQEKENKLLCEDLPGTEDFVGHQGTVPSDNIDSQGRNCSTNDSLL

In the case of `N#CNC(=NCCCOc1cccc(CN2CCCCC2)c1)NCCNC(=O)c1ccc(N)cc1` [Aminopotentidine], the “Interaction verified via competitive displacement of tracer” value [1] was “verify additional interactions”, the “Interaction verified via competitive displacement of tracer” value [2] was “verify additional interactions” and the “Interaction verified via competitive displacement of tracer” value (Dopamine receptors) was “verify additional interactions”.

`OCCOCCN1CCN(C2=Nc3ccccc3Sc3ccccc32)CC1` [Quetiapine (unmodified)] was tested, and the “NanoBRET Fold Response” value (ADRB2; 0.1μM) was 1.07, the “NanoBRET Fold Response” value (ADRB2; 1μM) was 1.33 and the “NanoBRET Fold Response” value (OPRM1; [3]) was 1.29. For the same compound, the “NanoBRET Fold Response” value (OPRM1; [4]) was 1.00, the “NanoBRET Fold Response” value (OPRD1; [3]) was 1.31 and the “NanoBRET Fold Response” value (OPRD1; [4]) was 1.06. The “NanoBRET Fold Response” value (ADRB1; [3]) was 1.33, the “NanoBRET Fold Response” value (ADRB1; [4]) was 1.09 and the “NanoBRET Fold Response” value (OPRK1; [3]) was 1.76. The “NanoBRET Fold Response” value (OPRK1; [4]) was 0.99, the “NanoBRET Fold Response” value (ADRB3; [3]) was 1.11 and the “NanoBRET Fold Response” value (ADRB3; [4]) was 1.12.

For `Cc1ccc(O)c([C@H](CCN(C(C)C)C(C)C)c2ccccc2)c1` [Tolterodine (unmodified)], the “NanoBRET Fold Response” value (OPRM1; [5]) was 0.97, the “NanoBRET Fold Response” value (OPRD1; [6]) was 0.91 and the “NanoBRET Fold Response” value (ADRB1; [5]) was 0.99. The “NanoBRET Fold Response” value (ADRB1; [6]) was 1.01, the “NanoBRET Fold Response” value (OPRK1; [5]) was 0.99 and the “NanoBRET Fold Response” value (OPRK1; [6]) was 1.00. The “NanoBRET Fold Response” value (ADRB3; [5]) was 1.01.

With `CCCn1c(=O)c2[nH]c(-c3ccc(OCC(=O)NCCN)cc3)nc2n(CCC)c1=O` [XAC (unmodified)] the “NanoBRET Fold Response, other tracers/XAC (unmodified)” value ([1]; ADRA1A, other tracer 0.1μM) was 3.51, the “NanoBRET Fold Response, other tracers/XAC (unmodified)” value ([1]; ADRA1A, other tracer 1μM) was 1.56 and the “NanoBRET Fold Response, other tracers/XAC (unmodified)” value ([1]; ADRA1B, other tracer 0.1μM) was 1.61. For the same compound, the “NanoBRET Fold Response, other tracers/XAC (unmodified)” value ([1]; ADRA1B, other tracer 1μM) was 1.32, the “NanoBRET Fold Response, other tracers/XAC (unmodified)” value ([1]; ADRA2A, other tracer 0.1μM) was 1.12 and the “NanoBRET Fold Response, other tracers/XAC (unmodified)” value ([1]; ADRA2A, other tracer 1μM) was 1.14. The “NanoBRET Fold Response, other tracers/XAC (unmodified)” value ([1]; ADRA2B, other tracer 0.1μM) was 4.34, the “NanoBRET Fold Response, other tracers/XAC (unmodified)” value ([1]; ADRA2B, other tracer 1μM) was 1.57 and the “NanoBRET Fold Response, other tracers/XAC (unmodified)” value ([1]; ADRA2C, other tracer 0.1μM) was 1.33.

With `CCCn1c(=O)c2[nH]c(-c3ccc(OCC(=O)NCCN)cc3)nc2n(CCC)c1=O` [XAC, Xanthine amine congener, reference compound] the “Interaction verified via competitive displacement of tracer” value [1] was “additional interactions”.

Reference: paper PMC8151276, “An Integrated Approach toward NanoBRET Tracers for Analysis of GPCR Ligand Engagement” (Molecules, 2021)
